Patent US9060541B2, “Sterilizer for foods” (Kawakami Co., Ltd., priority 2009, dated 2015)
Where two headings read alike, the source gives them in different places.

Columns and labels:
Type in all cases: cell-based
Design in all cases: key: D: There is no sterilization effect.; C: There is a sterilization effect in step (1) but no sterilization effect in step (2).; B: There is a sterilization effect up to step (2) but no sterilization effect in step (3).; A: There is a sterilization effect up to step (3)
[1] = test system: Vibrio parahaemolyticus AQ3815; test: Comparison test of sterilization effects against various food poisoning microbes
[2] = test system: Vibrio cholerae O1 NIH 41
[3] = test system: Vibrio cholerae non-O1 non-O139 KX-N105
[4] = test system: Vibrio mimicus KX-M5; test: Comparison test of sterilization effects against various food poisoning microbes
[5] = test system: Salmonella serotype Kentucky KX-S149; test: as above
[6] = test system: Salmonella serotype Enteritidis KX-S148; test: as above
[7] = test system: Shigella flexneri subtype 1b KX-H273; test: as above
[8] = test system: Shigella boydii serotype 4 KX-H288; test: as above
[9] = test system: Shigella sonnei KX-H285; test: as above
[10] = test system: Aeromonas sobria KX-A435; test: as above
[11] = test system: Aeromonas hydrophila KX-A428; test: as above
[12] = test system: Enteropathogenic Escherichia coli O55 KX-E59; test: as above
[13] = test system: Pseudomonas anguilliseptica NCMB1950; test: as above
[14] = test system: Lactobacillus plantarum RIMD 1202001; test: as above
[15] = test system: Campylobacter coli JCM 2529; test: as above
[16] = Table 7, test microbe solution without yeast extract
[17] = Table 8, yeast extract 4 weight % blended in test microbe solution

SMILES | Sterilization effect [1, 16] | Sterilization effect [1, 17] | Sterilization effect [2, 16] | Sterilization effect [2, 17] | Sterilization effect [3, 16] | Sterilization effect [3, 17] | Sterilization effect [4, 16] | Sterilization effect [4, 17] | Sterilization effect [5, 16] | Sterilization effect [5, 17] | Sterilization effect [6, 16] | Sterilization effect [6, 17] | Sterilization effect [7, 16] | Sterilization effect [7, 17] | Sterilization effect [8, 16] | Sterilization effect [8, 17] | Sterilization effect [9, 16] | Sterilization effect [9, 17] | Sterilization effect [10, 16] | Sterilization effect [10, 17] | other results
[Na+].[O-]Cl [S.H 150 ppm, sodium hypochlorite] | A | C | A | D | A | D | A | D | A | D | A | D | A | D | A | D | A | D | A | D | Sterilization effect [11, 16]: A; Sterilization effect [11, 17]: D; Sterilization effect [12, 16]: A; Sterilization effect [12, 17]: D; Sterilization effect [13, 16]: A; Sterilization effect [13, 17]: D; Sterilization effect [14, 16]: A; Sterilization effect [14, 17]: D; Sterilization effect [15, 16]: A; Sterilization effect [15, 17]: C
CCO [EtOH 30%, ethanol] | B | C | B | C | C | C | C | C | C | C | C | C | C | D | D | D | C | C | B | C | Sterilization effect [11, 16]: B; Sterilization effect [11, 17]: C; Sterilization effect [12, 16]: D; Sterilization effect [12, 17]: D; Sterilization effect [13, 16]: B; Sterilization effect [13, 17]: B; Sterilization effect [14, 16]: C; Sterilization effect [14, 17]: D; Sterilization effect [15, 16]: B; Sterilization effect [15, 17]: B
